Results taken from ChEMBL document CHEMBL4665770, “Design and Discovery of Natural Cyclopeptide Skeleton Based Programmed Death Ligand 1 Inhibitor as Immune Modulator for Cancer Therapy” (J Med Chem, 2020).
Square brackets hold non-standard residues; d marks the D form. Peptide text beside a SMILES is read from it.

Each compound was assayed against Programmed cell death protein 1/Programmed cell death 1 ligand 1 (Homo sapiens) (UniProt Q15116+Q9NZQ7) (assay: Inhibition of PD1-Tag2/PD-L1-Tag1 (unknown origin) protein-protein interaction at 20 uM preincubated for 15 mins followed by addition of anti-Tag1-Eu3+ and anti-Tag2-XL665 measured after 3 hrs by HTRF assay relative to control). Conditions: time 195.0 min.
Format: protein-complex assay

SMILES	inhibition
CC(C)C[C@@H]1NC(=O)[C@H](CC(=O)O)NC(=O)[C@H]([C@@H](C)O)NC(=O)[C@@H]2CCCN2C(=O)[C@@H](Cc2ccccc2)NC(=O)[C@H](CC(C)C)NC(=O)[C@H](CCCCN)NC(=O)[C@H](C(C)C)NC(=O)[C@@H]2CCCN2C(=O)[C@@H](Cc2ccccc2)NC1=O (cyclo(DL[dF]PVKL[dF]PT))	3.52%
CC(C)C[C@@H]1NC(=O)[C@H](CCCNC(=N)N)NC(=O)[C@H](C(C)C)NC(=O)[C@@H]2CCCN2C(=O)[C@@H](Cc2ccccc2)NC(=O)[C@H](C)NC(=O)[C@H](CCCNC(=N)N)NC(=O)[C@H](C)NC(=O)[C@@H]2CCCN2C(=O)[C@@H](Cc2ccccc2)NC1=O (cyclo(ARA[dF]PVRL[dF]P))	43.6%
CC(C)C[C@@H]1NC(=O)[C@H](CCCNC(=N)N)NC(=O)[C@H](C)NC(=O)[C@@H]2CCCN2C(=O)[C@@H](Cc2ccccc2)NC(=O)[C@H](C)NC(=O)[C@H](CCCNC(=N)N)NC(=O)[C@H](C)NC(=O)[C@@H]2CCCN2C(=O)[C@@H](Cc2ccccc2)NC1=O (cyclo(ARA[dF]PARL[dF]P))	0.7%
CC(C)C[C@@H]1NC(=O)[C@H](CCCNC(=N)N)NC(=O)[C@H](C(C)C)NC(=O)[C@@H]2CCCN2C(=O)[C@@H](Cc2ccccc2)NC(=O)[C@H](CC(C)C)NC(=O)[C@H](CC(=O)O)NC(=O)[C@H](CCC(=O)O)NC(=O)[C@@H]2CCCN2C(=O)[C@@H](Cc2ccccc2)NC1=O	1.14%
CC(C)C[C@@H]1NC(=O)[C@H](CCCNC(=N)N)NC(=O)[C@H]([C@@H](C)O)NC(=O)[C@@H]2CCCN2C(=O)[C@@H](Cc2ccccc2)NC(=O)[C@H](CC(C)C)NC(=O)[C@H](CCCNC(=N)N)NC(=O)[C@H](C(C)C)NC(=O)[C@@H]2CCCN2C(=O)[C@@H](Cc2ccccc2)NC1=O (cyclo(L[dF]PTRL[dF]PVR))	16.9%
CC(C)C[C@@H]1NC(=O)[C@H](Cc2ccc(O)cc2)NC(=O)[C@H]([C@@H](C)O)NC(=O)[C@@H]2CCCN2C(=O)[C@@H](Cc2ccccc2)NC(=O)[C@H](CC(C)C)NC(=O)[C@H](CCCNC(=N)N)NC(=O)[C@H](C(C)C)NC(=O)[C@@H]2CCCN2C(=O)[C@@H](Cc2ccccc2)NC1=O (cyclo(L[dF]PTYL[dF]PVR))	8.25%
CC(C)C[C@@H]1NC(=O)[C@H](CCCNC(=N)N)NC(=O)[C@H](C(C)C)NC(=O)[C@@H]2CCCN2C(=O)[C@@H](Cc2ccccc2)NC(=O)[C@H](CC(=O)O)NC(=O)[C@H](CC(C)C)NC(=O)[C@H]([C@@H](C)O)NC(=O)[C@@H]2CCCN2C(=O)[C@@H](Cc2ccccc2)NC1=O (cyclo(D[dF]PVRL[dF]PTL))	-5.92%
CC[C@H](C)[C@@H]1NC(=O)[C@@H]2CCCN2C(=O)[C@@H](Cc2ccccc2)NC(=O)[C@H](CC(C)C)NC(=O)[C@H](CC(=O)O)NC(=O)[C@H]([C@@H](C)O)NC(=O)[C@@H]2CCCN2C(=O)[C@@H](Cc2c[nH]c3ccccc23)NC(=O)[C@H](CC(C)C)NC(=O)[C@H](CCCNC(=N)N)NC1=O (cyclo(DL[dF]PIRL[dW]PT))	33.3%
CC(C)C[C@@H]1NC(=O)[C@H](CC(=O)O)NC(=O)[C@H]([C@@H](C)O)NC(=O)[C@@H]2CCCN2C(=O)[C@@H](Cc2ccccc2)NC(=O)[C@H](CC(C)C)NC(=O)[C@H](CCCNC(=N)N)NC(=O)[C@H](C(C)C)NC(=O)[C@@H]2CCCN2C(=O)[C@@H](Cc2ccc(O)cc2)NC1=O (cyclo(DL[dY]PVRL[dF]PT))	18.7%
CC(C)C[C@@H]1NC(=O)[C@H](CCCNC(=N)N)NC(=O)[C@H](C(C)C)NC(=O)[C@@H]2CCCN2C(=O)[C@@H](Cc2ccccc2)NC(=O)[C@H](C)NC(=O)[C@H](CC(C)C)NC(=O)[C@H](C(C)C)NC(=O)[C@@H]2CCCN2C(=O)[C@@H](Cc2ccccc2)NC1=O (cyclo(A[dF]PVRL[dF]PVL))	4.03%
CC(C)C[C@@H]1NC(=O)[C@H](CCCNC(=N)N)NC(=O)[C@H](C(C)C)NC(=O)[C@@H]2CCCN2C(=O)[C@@H](Cc2ccccc2)NC(=O)[C@H](C)NC(=O)[C@H](CC(=O)O)NC(=O)[C@H]([C@@H](C)O)NC(=O)[C@@H]2CCCN2C(=O)[C@@H](Cc2ccccc2)NC1=O (cyclo(A[dF]PVRL[dF]PTD))	-5.69%
CC(C)C[C@@H]1NC(=O)[C@H](CCCNC(=N)N)NC(=O)[C@H](C(C)C)NC(=O)[C@@H]2CCCN2C(=O)[C@@H](Cc2ccccc2)NC(=O)[C@H](CC(C)C)NC(=O)[C@H](CCCNC(=N)N)NC(=O)[C@H](C(C)C)NC(=O)[C@H](C)NC(=O)[C@@H](Cc2ccccc2)NC1=O (cyclo(L[dF]AVRL[dF]PVR))	27.2%
CC(NCCCC[C@@H]1NC(=O)[C@@H](Cc2ccccc2)NC(=O)[C@H](CC(C)C)NC(=O)[C@H](CC(=O)O)NC(=O)[C@H]([C@@H](C)O)NC(=O)[C@@H]2CCCN2C(=O)[C@@H](Cc2c[nH]c3ccccc23)NC(=O)[C@H](CC(C)C)NC(=O)[C@H](CCCNC(=N)N)NC(=O)[C@H](C(C)C)N(C)C1=O)=C1C(=O)CC(C)(C)CC1=O	29.1%
CC(C)C[C@@H]1NC(=O)[C@H](CCCNC(=N)N)NC(=O)[C@H](C(C)C)NC(=O)[C@@H]2CCCN2C(=O)[C@@H](Cc2ccccc2)NC(=O)[C@H](CC(C)C)NC(=O)[C@H](CCCNC(=N)N)NC(=O)[C@H](C)NC(=O)[C@@H]2CCCN2C(=O)[C@@H](Cc2ccccc2)NC1=O (cyclo(ARL[dF]PVRL[dF]P))	22.4%
CC(C)C[C@@H]1NC(=O)[C@H](CCCNC(=N)N)NC(=O)[C@H](C(C)C)NC(=O)[C@@H]2CCCN2C(=O)[C@@H](Cc2ccccc2)NC(=O)[C@H](CC(C)C)NC(=O)[C@H](CCCNC(=N)N)NC(=O)[C@H](C(C)C)NC(=O)[C@@H]2CCCN2C(=O)[C@@H](Cc2ccccc2)NC1=O (cyclo(L[dF]PVRL[dF]PVR))	-5.54%
CC(C)C[C@@H]1NC(=O)[C@H](CCCNC(=N)N)NC(=O)[C@H](C(C)C)NC(=O)[C@H](C)NC(=O)[C@@H](Cc2ccccc2)NC(=O)[C@H](C)NC(=O)[C@H](CCCNC(=N)N)NC(=O)[C@H](C(C)C)NC(=O)[C@@H]2CCCN2C(=O)[C@@H](Cc2ccccc2)NC1=O (cyclo(AVRL[dF]PVRA[dF]))	-0.657%
CC(C)C[C@@H]1NC(=O)[C@H](CCCNC(=N)N)NC(=O)[C@H](C(C)C)NC(=O)[C@@H]2CCCN2C(=O)[C@@H](Cc2ccccc2)NC(=O)[C@H](CC(C)C)NC(=O)[C@H]([C@@H](C)O)NC(=O)[C@@H]2CCCN2C(=O)[C@@H](Cc2ccccc2)NC(=O)[C@H](CC(=O)O)NC1=O (cyclo(D[dF]PTL[dF]PVRL))	-2.13%
CC(NCCCC[C@@H]1NC(=O)[C@@H](Cc2ccccc2)NC(=O)[C@H](CC(C)C)N(C)C(=O)[C@H](CC(=O)O)NC(=O)[C@H]([C@@H](C)O)NC(=O)[C@@H]2CCCN2C(=O)[C@@H](Cc2c[nH]c3ccccc23)NC(=O)[C@H](CC(C)C)NC(=O)[C@H](CCCNC(=N)N)NC(=O)[C@H](C(C)C)NC1=O)=C1C(=O)CC(C)(C)CC1=O	19.5%
CC(C)C[C@@H]1NC(=O)[C@H](CCC(=O)O)NC(=O)[C@H]([C@@H](C)O)NC(=O)[C@@H]2CCCN2C(=O)[C@@H](Cc2ccccc2)NC(=O)[C@H](CC(C)C)NC(=O)[C@H](CCCNC(=N)N)NC(=O)C(C(C)C)NC(=O)[C@@H]2CCCN2C(=O)[C@@H](Cc2ccccc2)NC1=O (stereo not given in full)	20.6%
CC(C)C[C@@H]1NC(=O)[C@H](CCCNC(=N)N)NC(=O)[C@H](C(C)C)NC(=O)[C@@H]2CCCN2C(=O)[C@@H](Cc2ccccc2)NC(=O)[C@H](Cc2cnc[nH]2)NC(=O)[C@H](CC(=O)O)NC(=O)[C@H]([C@@H](C)O)NC(=O)[C@@H]2CCCN2C(=O)[C@@H](Cc2ccccc2)NC1=O (cyclo(DH[dF]PVRL[dF]PT))	-8.61%
